The record followed here is US10472347B2, “Aminopyrazine compounds with A2A antagonist properties” (Merck Sharp & Dohme Corp., priority 2014, dated 2019).

In general, EC50 refers to the midpoint of the concentration-response curve. A low value points to greater potency. Usually Ki stands for the dissociation constant of the complex between target and ligand, obtained from inhibition or displacement. Read a low Ki as tighter binding.

T1 sequence (P29274 whole entry): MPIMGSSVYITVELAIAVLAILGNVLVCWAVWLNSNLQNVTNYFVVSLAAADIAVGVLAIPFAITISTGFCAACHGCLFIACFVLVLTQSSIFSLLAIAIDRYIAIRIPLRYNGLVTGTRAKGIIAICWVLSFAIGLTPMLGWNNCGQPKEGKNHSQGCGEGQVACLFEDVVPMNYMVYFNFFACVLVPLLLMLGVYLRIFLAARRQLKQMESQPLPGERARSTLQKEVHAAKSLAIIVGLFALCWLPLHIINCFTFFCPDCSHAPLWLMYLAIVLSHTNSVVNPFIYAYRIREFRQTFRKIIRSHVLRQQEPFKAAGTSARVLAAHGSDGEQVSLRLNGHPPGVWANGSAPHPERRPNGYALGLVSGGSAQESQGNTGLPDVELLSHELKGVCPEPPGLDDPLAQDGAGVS

The first assay concerns the target T1, human A2a receptor (Homo sapiens, UniProt P29274).
T1 construct: purchased Perkin-Elmer RBHA2AM400UA; host or cells: HEK293 cells (membranes)
The assay can be described thus: A2a competition binding assay, Scintillation Proximity technology. As to conditions: membranes from HEK293 cells expressing human A2a receptor; 0.5 nM tritiated ligand. How it is done: Binding affinities of compounds of the invention for the human A2a receptor were determined in a competition binding assay using Scintillation Proximity technology. Thus, […] from HEK293 cells expressing the human A2a receptor were incubated with a compound of the invention at concentrations ranging from 3000 nM to 0.15 nM in a reaction mixture containing also 0.5 nM of a tritiated form of 5-amino-7-[2-phenethyl]-2-(furan-2-yl)-7H-pyrazolo[4,3-e][1,2,4]triazolo[1,5-c]pyrimidine (the tritiated compound) and 100 μg of wheat germ agglutin-coated yttrium silicate SPA beads for one hour at room temperature with agitation. The beads were then allowed to settle to the bottom of the wells for 1 hr, after which the membrane-associated radioactivity was determined by scintillation counting in a TopCount microplate reader. Ki values were determined using the Cheng-Prusoff equation.
HEK293 cells expressing the human, rat, dog or monkey adenosine 2a receptor (Purchased from Perkin-Elmer # RBHA2AM400UA).
The Tritiated compound was prepared in-house by MRL Radiochemistry according to published methods.
Wheat germ agglutinin-coated yttrium silicate SPA beads (GE Healthcare #RPNQ0023). Dilute to 25 mg/ml in assay buffer.
Assay Buffer was prepared in house: Dulbecco's calcium and magnesium free phosphate buffered saline+10 mM MgCl2
Adenosine deaminase from calf intestine, 10 mg/2 ml (Roche #10 102 105 001).
A2a antagonist standard (9-chloro-1-(2-furanyl)-[1,2,4]triazolo1,5-c]quinazolin-5-amine from Tocris Bioscience)
Make eight 1:3 serial dilutions in 100% DMSO from a 3 mM compound stock
Transfer 50 nl of compound into a 384-well OptiPlate (Perkin Elmer).
Typically, final concentrations of compound used in the assay ranged from 3000 nM to 0.152 nM.
Dilute a solution of the Tritiated compound to 1.25 nM in assay buffer. This is a 2.5× solution. The final concentration in the assay is 0.5 nM. Calculate the concentration by counting two 5 μl aliquots.
Use 0.25 ug of membrane/well. Dilute membranes to 9.7 μg/ml in assay buffer. Treat with 20 ug/ml adenosine deaminase (ADA) for 15 minutes at room temperature to degrade endogenous adenosine.
Use 100 μg/well wheat germ agglutinin-coated yttrium silicate SPA beads.
Mix ADA-treated membranes and SPA beads together for 30 min prior to assay.
To the Perkin-Elmer Optiplate-384 containing the compound titration add 20 μl of 2.5× solution of the Tritiated compound and 30 μl of the membrane-bead mixture. Incubate for one hour at room temperature with agitation.
Include total binding (assay buffer+1% DMSO) and non-specific binding (CGS15943, 1 μM) wells.
Allow the beads to settle for one hour.
A curve fitting program (i.e., Prism, Activity Base, Chemcart) is used to determine the EC50. The Ki value is calculated using the Cheng-Prusoff equation. Ki=EC50/(1+(radioligand concentration/Kd))
On the technique in general: In a scintillation proximity assay essentially only radioactivity close to the scintillant gives light.
Compound `Cc1nc(C(=O)N[C@@H]2CCc3cccnc32)c(N)nc1-c1ncco1` (single isomer, unassigned) [Ex-1A] had an EC50 of 4 nM.

Take `Cc1nc(C(=O)N[C@H]2CCc3cccnc32)c(N)nc1-c1ncco1` (single isomer, unassigned) [Ex-1B]: the EC50 stood at 2.9 nM.

The assay is the same for the next values; noted with them: membranes from HEK293 cells expressing human A2a receptor; Ki by Cheng-Prusoff equation.
In the case of `Cc1nc(C(=O)NC(C)c2ccccn2)c(N)nc1-c1ncco1` (single isomer, unassigned) [Ex-82A, 3-amino-6-methyl-5-(1,3-oxazol-2-yl)-N-(1-pyridin-2-ylethyl)pyrazine-2-carboxamide], the affinity, expressed as Ki, was 2.48 nM. This lies in the single-digit nanomolar range.

With `Cc1nc(C(=O)NC(C)c2ccccn2)c(N)nc1-c1ncco1` (single isomer, unassigned) [Ex-82B, 3-amino-6-methyl-5-(1,3-oxazol-2-yl)-N-(1-pyridin-2-ylethyl)pyrazine-2-carboxamide], the inhibitory constant (Ki) was determined as 43.5 nM.

In turn, `Cc1nc(C(=O)NC2CCCc3cnccc32)c(N)nc1-c1ncco1` (single isomer, unassigned) [Ex-84A, 3-amino-6-methyl-5-(1,3-oxazol-2-yl)-N-(5,6,7,8-tetrahydroisoquinolin-5-yl)pyrazine-2-carboxamide] displayed a Ki of 280 nM.

In turn, `Cc1nc(C(=O)NC2CCCc3cnccc32)c(N)nc1-c1ncco1` (single isomer, unassigned) [Ex-84B, 3-amino-6-methyl-5-(1,3-oxazol-2-yl)-N-(5,6,7,8-tetrahydroisoquinolin-5-yl)pyrazine-2-carboxamide] gave an inhibitory constant (Ki) of 245 nM.

Consider `CCC(NC(=O)c1nc(C)c(-c2ncco2)nc1N)c1ccccn1` (single isomer, unassigned) [Ex-94A, 3-amino-6-methyl-5-(1,3-oxazol-2-yl)-N-(1-pyridin-2-ylpropyl)pyrazine-2-carboxamide], for which the affinity, expressed as Ki, was 8.7 nM.

As to `CCC(NC(=O)c1nc(C)c(-c2ncco2)nc1N)c1ccccn1` (single isomer, unassigned) [Ex-94B, 3-amino-6-methyl-5-(1,3-oxazol-2-yl)-N-(1-pyridin-2-ylpropyl)pyrazine-2-carboxamide], the inhibition constant Ki came out at 138 nM.

For `Cc1nc(C(=O)NC2CCCC(O)CC2)c(N)nc1-c1ncco1` (single isomer, unassigned) [Ex-165A, 3-amino-N-(4-hydroxycycloheptyl)-6-methyl-5-(1,3-oxazol-2-yl)pyrazine-2-carboxamide], the Ki turned out to be 13.1 nM.

`Cc1nc(C(=O)NC2CCCC(O)CC2)c(N)nc1-c1ncco1` (single isomer, unassigned) [Ex-165B, 3-amino-N-(4-hydroxycycloheptyl)-6-methyl-5-(1,3-oxazol-2-yl)pyrazine-2-carboxamide] returned an inhibition constant Ki of 2.12 nM.

As for `Cc1nc(C(=O)NC2CCCC(O)CC2)c(N)nc1-c1ncco1` (single isomer, unassigned) [Ex-165C, 3-amino-N-(4-hydroxycycloheptyl)-6-methyl-5-(1,3-oxazol-2-yl)pyrazine-2-carboxamide], the Ki was 7.64 nM.

In turn, `Cc1nc(C(=O)NC2CCCC(O)CC2)c(N)nc1-c1ncco1` (single isomer, unassigned) [Ex-165D, 3-amino-N-(4-hydroxycycloheptyl)-6-methyl-5-(1,3-oxazol-2-yl)pyrazine-2-carboxamide] gave an inhibition constant Ki of 9.34 nM.

`Cc1nc(C(=O)NC2CCCC2(F)F)c(N)nc1-c1ncco1` (single isomer, unassigned) [Ex-191A, 3-amino-N-(2,2-difluorocyclopentyl)-6-methyl-5-(1,3-oxazol-2-yl)pyrazine-2-carboxamide] registered a Ki of 1.33 nM.

Take `Cc1nc(C(=O)NC2CCCC2(F)F)c(N)nc1-c1ncco1` (single isomer, unassigned) [Ex-191B, 3-amino-N-(2,2-difluorocyclopentyl)-6-methyl-5-(1,3-oxazol-2-yl)pyrazine-2-carboxamide]: the Ki came to 2.56 nM.

With `Cc1nc(C(=O)NC2CCCc3cccnc32)c(N)nc1-c1ncco1` (single isomer, unassigned) [Ex-230A, 3-amino-6-methyl-5-(1,3-oxazol-2-yl)-N-(5,6,7,8-tetrahydroquinolin-8-yl)pyrazine-2-carboxamide], affinity was put at a Ki of 3.74 nM.

With `Cc1nc(C(=O)NC2CCCc3cccnc32)c(N)nc1-c1ncco1` (single isomer, unassigned) [Ex-230B, 3-amino-6-methyl-5-(1,3-oxazol-2-yl)-N-(5,6,7,8-tetrahydroquinolin-8-yl)pyrazine-2-carboxamide], the inhibition constant Ki worked out at 0.762 nM.

In turn, `COc1ccc2c(c1)CCC2NC(=O)c1nc(C)c(-c2ncco2)nc1N` (single isomer, unassigned) [Ex-231A, 3-amino-N-(5-methoxy-2,3-dihydro-1H-inden-1-yl)-6-methyl-5-(1,3-oxazol-2-yl)pyrazine-2-carrboxamide] came in with a Ki of 29.2 nM.

As to `COc1ccc2c(c1)CCC2NC(=O)c1nc(C)c(-c2ncco2)nc1N` (single isomer, unassigned) [Ex-231B, 3-amino-N-(5-methoxy-2,3-dihydro-1H-inden-1-yl)-6-methyl-5-(1,3-oxazol-2-yl)pyrazine-2-carboxamide], the inhibitory constant (Ki) amounted to 10.5 nM.

For the compound `Cc1nc(C(=O)NC2CCc3ccccc3C2)c(N)nc1-c1ncco1` (single isomer, unassigned) [Ex-233A, 3-amino-6-methyl-5-(1,3-oxazol-2-yl)-N-(1,2,3,4-tetrahydronaphthalen-2-yl)pyrazine-2-carboxamide], the Ki was 1.15 nM.

The compound `Cc1nc(C(=O)NC2CCc3ccccc3C2)c(N)nc1-c1ncco1` (single isomer, unassigned) [Ex-233B, 3-amino-6-methyl-5-(1,3-oxazol-2-yl)-N-(1,2,3,4-tetrahydronaphthalen-2-yl)pyrazine-2-carboxamide] yielded a Ki of 0.572 nM.

In turn, `Cc1nc(C(=O)NC2c3ncccc3CC2O)c(N)nc1-c1ncco1` (single isomer, unassigned) [Ex-238A, 3-amino-N-(6-hydroxy-6,7-dihydro-5H-cyclopenta[b]pyridin-7-yl)-6-methyl-5-(1,3-oxazol-2-yl)pyrazine-2-carboxamide] registered a Ki of 5.51 nM.

The compound `Cc1nc(C(=O)NC2c3ncccc3CC2O)c(N)nc1-c1ncco1` (single isomer, unassigned) [Ex-238B, 3-amino-N-(6-hydroxy-6,7-dihydro-5H-cyclopenta[b]pyridin-7-yl)-6-methyl-5-(1,3-oxazol-2-yl)pyrazine-2-carboxamide] yielded a Ki of 0.94 nM.

Regarding `Cc1nc(C(=O)NC2CCc3c(Cl)ccnc32)c(N)nc1-c1ncco1` (single isomer, unassigned) [Ex-244A, 3-amino-N-(4-chloro-6,7-dihydro-5H-cyclopenta[b]pyridin-7-yl)-6-methyl-5-(1,3-oxazol-2-yl)pyrazine-2-carboxamide], the Ki is 0.22 nM.

In the case of `Cc1nc(C(=O)NC2CCc3c(Cl)ccnc32)c(N)nc1-c1ncco1` (single isomer, unassigned) [Ex-244B, 3-amino-N-(4-chloro-6,7-dihydro-5H-cyclopenta[b]pyridin-7-yl)-6-methyl-5-(1,3-oxazol-2-yl)pyrazine-2-carboxamide], the Ki was 1.28 nM.

`Cc1nc(C(=O)NC2CCc3ccc(Cl)nc32)c(N)nc1-c1ncco1` (single isomer, unassigned) [Ex-245A, 3-amino-N-(2-chloro-6,7-dihydro-5H-cyclopenta[b]pyridin-7-yl)-6-methyl-5-(1,3-oxazol-2-yl)pyrazine-2-carboxamide] came in with a Ki of 6.69 nM.

In turn, `Cc1nc(C(=O)NC2CCc3ccc(Cl)nc32)c(N)nc1-c1ncco1` (single isomer, unassigned) [Ex-245B, 3-amino-N-(2-chloro-6,7-dihydro-5H-cyclopenta[b]pyridin-7-yl)-6-methyl-5-(1,3-oxazol-2-yl)pyrazine-2-carboxamide] gave an inhibition constant (Ki) of 4.39 nM.

`Cc1nc(C(=O)NC2CCOc3ccccc32)c(N)nc1-c1ncco1` (stereo in doubt) [Ex-145, 3-amino-N-[(4R)-3,4-dihydro-2H-chromen-44-yl]-6-methyl-5-(1,3-oxazol-2-yl)pyrazine-2-carboxamide] showed an inhibitory constant (Ki) of 4.22 nM.

Turning to `Cc1nc(C(=O)NC2CCOc3ccccc32)c(N)nc1-c1ncco1` (stereo in doubt) [Ex-146, 3-amino-N-[(4S)-3,4-dihydro-2H-chromen-4-yl]-6-methyl-5-(1,3-oxazol-2-yl)pyrazine-2-carboxamide], the affinity corresponds to a Ki of 5.57 nM. The Ki values of the last two compounds are within 1.5-fold of each other.
